According to article doi:10.1101/2025.11.21.689824v1, “Fluorescent Biosensor-Guided Engineering of Enzyme Cascades for Electrochemical Applications” (biorxiv, 2025):
Where two headings read alike, the source gives them in different places.

Key:
[1] = target: V0 fusion (MDH-G4SG4S-fumarase); assay: inhibition of fumarate to NADH cascade, Lineweaver-Burk; type: biochemical, Escherichia coli; conditions: 500 µM NAD+, fumarate 0.25-8 mM, 100 mM potassium phosphate, 0.5 nM enzyme; competitive at the MDH part; cascade read-out; read-out: apparent Ki
Procedure: inhibition of fumarate to NADH cascade, Lineweaver-Burk on V0 fusion (MDH-G4SG4S-fumarase) | the apparent inhibition constant (Ki) of citrate on the enzymatic cascade was determined

[2] = target: H23 fusion (MDH-scaffolded KKRQKKKRK linker-fumarase); assay: as above; type: biochemical, Escherichia coli; conditions: 500 µM NAD+, fumarate 0.25-8 mM, 100 mM potassium phosphate, 0.5 nM enzyme; competitive at the MDH part; cascade read-out; read-out: apparent Ki
[3] = target: T1, WT Fumarase (FumC, class II) (Escherichia coli, UniProt P05042); assay: UV absorbance of fumarate, Lineweaver-Burk; type: biochemical; conditions: potassium phosphate buffer, 20 nM enzyme; free enzyme
T1 construct: full length, N-terminal leader […]; (His tag, T7 gene 10 leader, Xpress) in pBAD, expressed in E. coli XL1-Blue; homotetramer
T1 sequence (P05042 1-467): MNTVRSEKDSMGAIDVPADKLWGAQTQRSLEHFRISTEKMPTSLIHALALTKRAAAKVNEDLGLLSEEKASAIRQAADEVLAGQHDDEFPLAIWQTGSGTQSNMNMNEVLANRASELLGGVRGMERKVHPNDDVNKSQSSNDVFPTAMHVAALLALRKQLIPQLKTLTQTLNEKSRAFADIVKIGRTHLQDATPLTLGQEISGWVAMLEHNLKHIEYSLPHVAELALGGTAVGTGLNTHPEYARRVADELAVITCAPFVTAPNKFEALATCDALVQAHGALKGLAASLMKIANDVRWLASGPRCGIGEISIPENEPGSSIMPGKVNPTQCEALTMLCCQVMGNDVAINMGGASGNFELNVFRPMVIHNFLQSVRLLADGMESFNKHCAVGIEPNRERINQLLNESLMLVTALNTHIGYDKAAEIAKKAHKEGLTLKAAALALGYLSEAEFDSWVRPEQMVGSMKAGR

[4] = test system: T2, Single-chain E. coli Fumarase #2; conditions: potassium phosphate buffer, 1 µM enzyme
T2 construct: gene fumC

[5] = test system: H23 fusion (MDH-scaffolded KKRQKKKRK linker-fumarase); conditions: fumarase component; potassium phosphate buffer, 20 nM enzyme; free enzyme
[6] = test system: V0 fusion (MDH-G4SG4S-fumarase); conditions: fumarase component; potassium phosphate buffer, 20 nM enzyme; free enzyme
[7] = test system: Single-chain T. thermophilus Fumarase #1 H23 MDH Linkage (T1-H23); conditions: fumarase component; potassium phosphate buffer, 1 µM enzyme
[8] = test system: T3, Single-chain T. thermophilus Fumarase #1; conditions: potassium phosphate buffer, 1 µM enzyme
T3 construct: gene fumC

[9] = test system: Single-chain T. thermophilus Fumarase #1 V0 MDH Linkage (T1-V0); conditions: fumarase component; potassium phosphate buffer, 1 µM enzyme
[10] = test system: V0 fusion (MDH-G4SG4S-fumarase); conditions: MDH component, fumarase part inactivated; 50 mM NAD+, potassium phosphate buffer, 1 nM enzyme
[11] = test system: Single-chain T. thermophilus Fumarase #1 V0 MDH Linkage (T1-V0); conditions: MDH component; 50 mM NAD+, potassium phosphate buffer; not told whether the fumarase part was inactivated
[12] = test system: H23 fusion (MDH-scaffolded KKRQKKKRK linker-fumarase); conditions: MDH component, fumarase part inactivated; 50 mM NAD+, potassium phosphate buffer, 1 nM enzyme
[13] = test system: Single-chain T. thermophilus Fumarase #1 H23 MDH Linkage (T1-H23); conditions: MDH component; 50 mM NAD+, potassium phosphate buffer; not told whether the fumarase part was inactivated

O=C(O)CC(O)(CC(=O)O)C(=O)O [citrate]
Ki [1]: 1.65 ± 0.15 mM
Ki [2]: 8.57 ± 0.71 mM

O=C(O)/C=C/C(=O)O [fumarate]
Km [3]: 443 ± 101 µM
Km [4]: 758 ± 192 µM
Km [5]: 934 ± 66 µM
Km [6]: 759 ± 51 µM
Km [7]: 972 ± 62 µM
Km [8]: 809 ± 59 µM
Km [9]: 969 ± 61 µM

O=C(O)C[C@H](O)C(=O)O [malate]
Km [10]: 1210 ± 70 µM
Km [11]: 1050 ± 390 µM
Km [12]: 1220 ± 60 µM
Km [13]: 1150 ± 370 µM
